Laboratory results as given in ChEMBL document CHEMBL1159372, “Two flavone C-glycosides from the style of Zea mays with glycation inhibitory activity” (J Nat Prod, 2003).

Assay: Inhibition of advanced glycation end product formation at 1 mM after 7 days by fluorescence assay
Type: physicochemical
Details: 168 h, 1000 µM

Structure (SMILES) | inhibition (INH)
COc1cc(-c2cc(=O)c3c(O)c([C@H]4C[C@@H](O)[C@H](O)[C@H](C)O4)c(O[C@@H]4O[C@H](CO)[C@@H](O)[C@H](O)[C@H]4O)cc3o2)ccc1O | 53%
COc1cc(-c2cc(=O)c3c(O)c([C@H]4C[C@@H](O)[C@H](O)[C@H](C)O4)c(O)cc3o2)ccc1O | 64.2%
N=C(N)NN [PIMAGEDINE] | 60.5%
